Measured values taken from the supplement of paper PMC7285287.
Structures can show the parent of a compound that is named as a salt. ± gives the standard deviation of the averaged measurements.

Test system: Candida albicans SNY425 biofilm
Test: biofilm OD600 relative to DMSO control (fraction of DMSO control); higher = more biofilm (less inhibition)
Procedure: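 C. albicans SNY425 biofilm optical density assays (OD600 of the adhered biofilm after media removal) in RPMI-MOPS pH 7.0 at 37 °C with shaking. Groups of 4 to 8 wells per compound are averaged and normalised to the average of DMSO loading control wells. Adherence inhibition was tested at 10 and 40 µM, sustained inhibition and disruption at 40 µM, and the MBIC series at 200 to 0.78 µM.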

[1] = 10 µM, assay detail: adherence inhibition, 96-well, compound during 90 min adherence only
[2] = 40 µM, assay detail: adherence inhibition, 96-well, compound during 90 min adherence only
[3] = 40 µM, assay detail: disruption, 384-well, compound added to 24 h mature biofilm for further 24 h
[4] = 40 µM, assay detail: sustained inhibition, 384-well, compound during adherence and 24 h growth
[5] = 0.78 µM, assay detail: sustained inhibition (MBIC series), 384-well, compound during adherence and 24 h growth
[6] = 3.125 µM, assay detail: sustained inhibition (MBIC series), 384-well, compound during adherence and 24 h growth
[7] = 12.5 µM, assay detail: sustained inhibition (MBIC series), 384-well, compound during adherence and 24 h growth
[8] = 50 µM, assay detail: sustained inhibition (MBIC series), 384-well, compound during adherence and 24 h growth
[9] = 200 µM, assay detail: sustained inhibition (MBIC series), 384-well, compound during adherence and 24 h growth

Row | Compound | biofilm OD600 [1] | biofilm OD600 [2] | biofilm OD600 [3] | biofilm OD600 [4] | biofilm OD600 [5] | biofilm OD600 [6] | biofilm OD600 [7] | biofilm OD600 [8] | biofilm OD600 [9]
1 | CCC(=O)Oc1ccc2c(c1)CC[C@@H]1[C@@H]2CC[C@]2(C)[C@@H](OC(=O)CC)CC[C@@H]12 [estradiol dipropionate] | 0.958 | 0.844 | 0.954 ± 0.037 | 0.987 ± 0.012 |  |  |  |  | 
2 | COCCOC(=O)C1=C(C)NC(C)=C(C(=O)OC(C)C)C1c1cccc([N+](=O)[O-])c1 (stereo unspecified) [nimodipine] | 0.942 | 0.821 | 0.91 ± 0.029 | 0.984 ± 0.043 | 1.07 | 1.06 | 1.01 | 0.987 | 1.27
3 | N[C@H](Cc1ccccc1)C(=O)O [d-phenylalanine] | 1 | 1.01 | 0.973 ± 0.034 | 0.994 ± 0.06 |  |  |  |  | 
4 | CN1CCC[C@@H]1Cc1c[nH]c2ccc(CCS(=O)(=O)c3ccccc3)cc12 [eletriptan hydrobromide] | 0.99 | 0.945 | 1.014 ± 0.0095 | 1 ± 0.026 |  |  |  |  | 
5 | O=C(O)c1cccnc1 [niacin] | 0.913 | 0.91 | 1.016 ± 0.002 | 0.967 ± 0.024 |  |  |  |  | 
6 | CCOC(=O)[C@H](CCc1ccccc1)N[C@@H](C)C(=O)N1Cc2ccccc2C[C@H]1C(=O)O [quinapril hydrochloride] | 1.07 | 0.946 | 1 ± 0.022 | 1.01 ± 0.033 |  |  |  |  | 
7 | O=C([O-])C(O)[C@H](O)[C@@H](O)[C@H](O)[C@H](O)CO.O=C([O-])C(O)[C@H](O)[C@@H](O)[C@H](O)[C@H](O)CO.[Ca+2] (stereo partly specified) [calcium gluceptate] | 0.997 | 0.955 | 0.941 ± 0.037 | 0.955 ± 0.022 | 0.996 | 1.09 | 1.02 | 1.02 | 0.823
8 | Cc1c(NC(=O)c2cccnc2)c(=O)n(-c2ccccc2)n1C [nifenazone] | 0.927 | 0.919 | 1.004 ± 0.0086 | 0.968 ± 0.065 |  |  |  |  | 
9 | Fc1ccc([C@@H]2CCNC[C@H]2COc2ccc3c(c2)OCO3)cc1 [paroxetine hydrochloride] | 0.932 | 0.926 | 0.9497 ± 0.0011 | 0.509 ± 0.05 | 1.02 | 1.05 | 0.95 | 0.62 | 0.565
10 | CC1OC1P(=O)(O)O (stereo unspecified) [fosphomycin] | 0.972 | 1.04 | 1.01 ± 0.019 | 0.982 ± 0.011 |  |  |  |  | 
11 | Clc1ccc(C(Cn2ccnc2)OCc2ccsc2Cl)c(Cl)c1 (stereo unspecified) [tioconazole] | 0.341 | 0.284 | 0.8317 ± 0.0059 | 0.473 ± 0.032 | 0.768 | 0.714 | 0.675 | 0.491 | 0.312
12 | C[C@]12C=CC(=O)C=C1CC[C@H]1[C@@H]3C[C@@H](O)[C@](O)(C(=O)CO)[C@@]3(C)C[C@H](O)[C@@]12F [triamcinolone] | 1 | 0.879 | 1.03 ± 0.034 | 1 ± 0.014 |  |  |  |  | 
13 | COc1ccc(-c2cc(=O)c3c(O)cc(O[C@@H]4O[C@H](CO[C@@H]5O[C@@H](C)[C@H](O)[C@@H](O)[C@H]5O)[C@@H](O)[C@H](O)[C@H]4O)cc3o2)cc1O [diosmin] | 1 | 0.962 | 1.09 ± 0.14 | 1.07 ± 0.059 |  |  |  |  | 
14 | Cc1cnc(C(=O)O)c[n+]1[O-] [acipimox] | 0.823 | 0.56 | 0.997 ± 0.034 | 0.992 ± 0.029 |  |  |  |  | 
15 | N[C@@H](C(=O)N[C@@H]1C(=O)N2C(C(=O)O)=C(Cl)CS[C@H]12)c1ccccc1 [cefaclor] | 1.07 | 0.896 | 1.03 ± 0.028 | 0.983 ± 0.032 |  |  |  |  | 
16 | Oc1c(Cl)cc(Cl)c2cccnc12 [chloroxine] | 0.788 | 0.373 | 0.907 ± 0.031 | 0.28 ± 0.019 | 1.03 | 1.03 | 0.926 | 0.333 | 0.268
17 | Cc1cc2c(s1)Nc1ccccc1N=C2N1CCN(C)CC1 [olanzapine] | 0.943 | 0.921 | 0.999 ± 0.027 | 0.974 ± 0.04 |  |  |  |  | 

Row | Compound | biofilm OD600 [1] | biofilm OD600 [2] | biofilm OD600 [3] | biofilm OD600 [4] | biofilm OD600 [5] | biofilm OD600 [6] | biofilm OD600 [7] | biofilm OD600 [8] | biofilm OD600 [9]
18 | NC(=O)C(c1ccccc1)(c1ccccc1)[C@@H]1CCN(CCc2ccc3c(c2)CCO3)C1 [darifenacin hydrobromide] | 1.04 | 0.916 | 1 ± 0.018 | 1.05 ± 0.046 |  |  |  |  | 
19 | CCN(CC)C(=O)C1(c2ccccc2)CC1CN (stereo unspecified) [milnacipran hydrochloride] | 0.934 | 0.943 | 0.977 ± 0.026 | 0.962 ± 0.018 |  |  |  |  | 
20 | N[C@@H](Cc1cc(I)c(Oc2ccc(O)c(I)c2)c(I)c1)C(=O)O [liothyronine sodium] | 1.14 | 1.15 | 0.989 ± 0.05 | 0.96 ± 0.021 |  |  |  |  | 
21 | Cn1c(=O)c2c(ncn2CC(O)CO)n(C)c1=O (stereo unspecified) [dyphylline] | 0.909 | 0.872 | 1.02 ± 0.046 | 1.02 ± 0.047 |  |  |  |  | 
22 | Nc1ccc(S(=O)(=O)Nc2ccnn2-c2ccccc2)cc1 [Sulfaphenazole] | 0.962 | 0.934 | 1.01 ± 0.017 | 1.01 ± 0.03 |  |  |  |  | 
23 | CNCCCC1c2ccccc2C=Cc2ccccc21 [Protriptyline hydrochloride] | 1.05 | 0.899 | 1.01 ± 0.012 | 1.02 ± 0.022 |  |  |  |  | 
24 | C[C@@H]1CC[C@H]2[C@@H](C)C(=O)O[C@@H]3O[C@@]4(C)CC[C@@H]1[C@]32OO4 [artemisinin] | 1.14 | 0.966 | 0.955 ± 0.017 | 0.838 ± 0.019 | 1.09 | 1.06 | 1.01 | 0.893 | 0.744
25 | COC(=O)C1=C(C)NC(C)=C(C(=O)OCC(C)C)C1c1ccccc1[N+](=O)[O-] (stereo unspecified) [nisoldipine] | 0.914 | 0.888 | 1.01 ± 0.051 | 0.65 ± 0.077 | 0.962 | 1.01 | 0.989 | 0.549 | 0.397
26 | CC(C)N1CCN(c2ccc(OCC3COC(Cn4cncn4)(c4ccc(Cl)cc4Cl)O3)cc2)CC1 (stereo unspecified) [terconazole] | 0.387 | 0.269 | 0.9787 ± 0.008 | 0.55 ± 0.032 | 0.77 | 0.76 | 0.728 | 0.568 | 0.403
27 | COCCCOc1ccnc(C[S+]([O-])c2nc3ccccc3[nH]2)c1C (stereo unspecified) [rabeprazole sodium] | 1.06 | 0.914 | 0.936 ± 0.049 | 1 ± 0.022 | 0.998 | 1.1 | 1.08 | 1.01 | 0.747
28 | CCCCCCOC(=O)NC(=N)c1ccc(NCc2nc3cc(C(=O)N(CCC(=O)OCC)c4ccccn4)ccc3n2C)cc1 [dabigatran etexilate mesylate] | 1.05 | 0.776 | 0.971 ± 0.031 | 0.894 ± 0.046 | 0.9 | 0.9 | 0.92 | 0.843 | 0.628
29 | Cc1cccc(Nc2ccccc2C(=O)O)c1C [mefenamic acid] | 0.973 | 0.93 | 0.875 ± 0.038 | 0.905 ± 0.011 | 1.02 | 1.01 | 0.958 | 0.875 | 0.714
30 | O=C1CN(/N=C/c2ccc([N+](=O)[O-])o2)C(=O)N1 [nitrofurantoin] | 1.08 | 1.04 | 0.999 ± 0.035 | 0.999 ± 0.011 |  |  |  |  | 
31 | CN(C)CCC(c1ccc(Cl)cc1)c1ccccn1 (stereo unspecified) [chlorpheniramine maleate] | 1.02 | 0.894 | 1 ± 0.044 | 1.01 ± 0.026 |  |  |  |  | 
32 | Oc1ncnc2[nH]ncc12 [Allopurinol] | 0.938 | 0.887 | 1.02 ± 0.07 | 0.982 ± 0.038 |  |  |  |  | 
33 | C=CC1=C(C)c2cc3[nH]c(cc4nc(cc5[nH]c(cc1n2)c(C)c5CCC(=O)O)C(CCC(=O)O)=C4C)c(C)c3C=C [protoporphyrin ix] | 1.04 | 0.941 | 1.21 ± 0.082 | 1.65 ± 0.22 |  |  |  |  | 
34 | Cc1ccc(-c2nc3ccc(C)cn3c2CC(=O)N(C)C)cc1 [zolpidem] | 0.924 | 0.858 | 1.005 ± 0.0066 | 0.981 ± 0.055 |  |  |  |  | 
